Molecular target: BTK (Homo sapiens (Human), UniProt Q06187)
Assay: Reversibility of binding (compound in solution by HPLC-MS/MS before and after target perturbation)
Procedure: The following approach was developed to differentiate compounds that form irreversible covalent bond with their targets, such as non-cyano containing acrylamide compounds, from compound that form reversible covalent bond i.e., compounds and/or pharmaceutically acceptable salts of the present disclosure. […] The reactions were then treated with perturbations including both denaturation with 5 M guanidine hydrochloride and digestion with trypsin, disrupting proper folding of the target. […] The concentration of compound in solution was assessed both preceding and following perturbation using high performance liquid chromatography (HPLC) coupled to tandem mass spectrometry.

BTK, sequence (Q06187 whole entry): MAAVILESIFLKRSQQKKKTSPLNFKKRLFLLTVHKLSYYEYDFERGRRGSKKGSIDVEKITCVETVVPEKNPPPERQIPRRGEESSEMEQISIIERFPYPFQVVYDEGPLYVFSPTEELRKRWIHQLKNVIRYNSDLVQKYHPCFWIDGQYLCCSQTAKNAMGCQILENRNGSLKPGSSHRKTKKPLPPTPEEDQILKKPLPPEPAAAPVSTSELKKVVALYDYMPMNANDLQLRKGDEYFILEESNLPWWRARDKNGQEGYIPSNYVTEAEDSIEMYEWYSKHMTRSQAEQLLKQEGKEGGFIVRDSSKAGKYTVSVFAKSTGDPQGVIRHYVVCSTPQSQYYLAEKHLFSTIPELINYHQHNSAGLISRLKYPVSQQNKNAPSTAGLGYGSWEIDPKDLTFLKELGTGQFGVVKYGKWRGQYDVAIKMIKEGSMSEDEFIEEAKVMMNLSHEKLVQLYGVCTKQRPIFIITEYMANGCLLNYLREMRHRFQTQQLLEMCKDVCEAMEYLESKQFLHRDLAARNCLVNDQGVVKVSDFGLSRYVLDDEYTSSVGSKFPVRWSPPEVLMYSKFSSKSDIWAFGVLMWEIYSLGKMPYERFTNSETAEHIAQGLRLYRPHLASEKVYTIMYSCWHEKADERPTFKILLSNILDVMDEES

Compound in solution in the denatured or digested state? (after 5 M guanidine hydrochloride denaturation or trypsin digestion): yes | Compound in solution in the native state? (target in excess, native state): no
SMILES: CN(C1COC1)C(C)(C)C=C(C#N)C(=O)N1CCC[C@H]1Cn1nc(-c2ccc(Oc3ccccc3)cc2F)c2c(N)ncnc21 [Example 10, 2-[(2S)-2-[[4-amino-3-(2-fluoro-4-phenoxy-phenyl)pyrazolo[3,4-d]pyrimidin-1-yl]methyl]pyrrolidine-1-carbonyl]-4-methyl-4-[methyl(oxetan-3-yl)amino]pent-2-enenitrile]

Source: US9266895B2, “Substituted pyrazolo[3,4-d]pyrimidines as kinase inhibitors” (PRINCIPIA BIOPHARMA INC., priority 2012, dated 2016)
